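Step 1: Grow cells in 96-well plates. Step 2: Expose to compound for 48 hours at 5 concentrations. Step 3: Interpolate endpoints linearly; if unreached, use highest concentration. GI50 = concentration required for 50% inhibition of growth.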 The source made the active and inactive calls. Rule as the data show it: active = GI50 up to about 1.1 µM and inactive = higher. Where a SMILES comes first, the peptide text is derived from it. [ ]: non-standard residue; d: D form. Phe(4-NO2) = N[CH](Cc1ccc([N+](=O)[O-])cc1)C(=O)O
Experiments:
Assay in all cases: NCI anticancer screen, dose series, 48 h
[1] = tested on: ACHN
[2] = tested on: BT-549
[3] = tested on: CAKI-1
[4] = tested on: LOX IMVI
[5] = tested on: MDA-MB-435
[6] = tested on: NCI-H522
[7] = tested on: NCI/ADR-RES
[8] = tested on: OVCAR-3
[9] = tested on: PC-3
[10] = tested on: SF-295
[11] = tested on: SK-MEL-28
[12] = tested on: SK-MEL-2
[13] = tested on: SN12C
[14] = tested on: SNB-19
[15] = tested on: SR
[16] = tested on: SW-620
[17] = tested on: T47D
[18] = tested on: UACC-257
[19] = tested on: UACC-62
[20] = tested on: RXF 393

Row | SMILES | GI50 [1] | GI50 [2] | GI50 [3] | GI50 [4] | GI50 [5] | GI50 [6] | GI50 [7] | GI50 [8] | GI50 [9] | GI50 [10] | GI50 [11] | GI50 [12] | GI50 [13] | GI50 [14] | GI50 [15] | GI50 [16] | GI50 [17] | GI50 [18] | GI50 [19] | GI50 [20]
1 | C=C1CC(COc2cc(=O)oc3ccccc23)(c2ccccc2)OC1=O (centres undefined) | 2.5 µM (inactive) | 1.53 µM (inactive) | 1.3 µM (inactive) | 1.45 µM (inactive) | 3.7 µM (inactive) | 1.56 µM (inactive) | 2.96 µM (inactive) | 1.37 µM (inactive) | 1.95 µM (inactive) | 5.15 µM (inactive) | 2.41 µM (inactive) | 1.08 µM (active) | 1.91 µM (inactive) | 16.4 µM (inactive) | 6.32 µM (inactive) | 1.17 µM (inactive) | 2.25 µM (inactive) | 1.99 µM (inactive) | 1.41 µM (inactive) | 
2 | COc1ccc(-c2nc3c(C(=O)NCCN(C)C)cccc3c3ccccc23)cc1 | 3.25 µM (inactive) | 10.5 µM (inactive) | 1.71 µM (inactive) | 1.5 µM (inactive) | 2.2 µM (inactive) | 2.65 µM (inactive) | 7.31 µM (inactive) | 4.57 µM (inactive) | 3.73 µM (inactive) | 2.18 µM (inactive) | 1.97 µM (inactive) | 5.21 µM (inactive) | 4.2 µM (inactive) | 3.42 µM (inactive) | 2.43 µM (inactive) | 3.62 µM (inactive) | 8.99 µM (inactive) | 1.89 µM (inactive) | 1.83 µM (inactive) | 
3 | COC(=O)C1(N2CCOCC2)CCC([C@@H](c2ccccc2)C(C)[N+](=O)[O-])C1 (some centres undefined) | > 100 µM (inactive) | 16.8 µM (inactive) |  | 39 µM (inactive) | > 100 µM (inactive) |  | > 100 µM (inactive) | 18.7 µM (inactive) | > 100 µM (inactive) | > 100 µM (inactive) | > 100 µM (inactive) | > 100 µM (inactive) | > 100 µM (inactive) | > 100 µM (inactive) | 20.8 µM (inactive) | 45.2 µM (inactive) | 2.03 µM (inactive) | 28 µM (inactive) | > 100 µM (inactive) | 
4 | COC(=O)/C(=C\c1cn(C(C)=O)c2ccccc12)P(=O)(OC)OC | 11.8 µM (inactive) | 15.8 µM (inactive) | 12.6 µM (inactive) | 5.55 µM (inactive) | 21.2 µM (inactive) | 11.2 µM (inactive) | 23.8 µM (inactive) | 17.1 µM (inactive) | 16.2 µM (inactive) | 14.9 µM (inactive) | 24.1 µM (inactive) |  | 14.8 µM (inactive) | 18.1 µM (inactive) | > 100 µM (inactive) | 18.5 µM (inactive) | 13.7 µM (inactive) |  | 11.5 µM (inactive) | 16.7 µM (inactive)
5 | COCCOC(=O)C(C)=[N+]=[N-] | > 100 µM (inactive) | > 100 µM (inactive) | > 100 µM (inactive) | > 100 µM (inactive) | > 100 µM (inactive) | > 100 µM (inactive) | > 100 µM (inactive) | > 100 µM (inactive) | > 100 µM (inactive) | > 100 µM (inactive) | > 100 µM (inactive) |  | > 100 µM (inactive) | > 100 µM (inactive) | 68.1 µM (inactive) | > 100 µM (inactive) | > 100 µM (inactive) | > 100 µM (inactive) | > 100 µM (inactive) | > 100 µM (inactive)
6 | C/C(=N\NS(=O)(=O)c1ccc(C)cc1)c1ccccn1 | 26.1 µM (inactive) | > 100 µM (inactive) | 36 µM (inactive) | 55.6 µM (inactive) | > 100 µM (inactive) |  | 38 µM (inactive) | 50.7 µM (inactive) | 84.3 µM (inactive) | 43.3 µM (inactive) | 98.2 µM (inactive) | > 100 µM (inactive) |  | 74.8 µM (inactive) | 65 µM (inactive) | > 100 µM (inactive) | 76.9 µM (inactive) | 81.8 µM (inactive) | 40.2 µM (inactive) | > 100 µM (inactive)
7 | C1=C\SS/C=C\SS/1 | 27.9 µM (inactive) | 97.1 µM (inactive) | > 10 µM (inactive) | 29 µM (inactive) | 57.5 µM (inactive) |  | 46 µM (inactive) |  | 38.5 µM (inactive) | 58.1 µM (inactive) | > 100 µM (inactive) | 48.4 µM (inactive) | 61.9 µM (inactive) | 32.3 µM (inactive) | > 100 µM (inactive) | 33.1 µM (inactive) | 55.1 µM (inactive) | 38.9 µM (inactive) | 52.4 µM (inactive) | 32.2 µM (inactive)
8 | CSc1ncc2c(C#N)c3[nH]c4ccccc4n3c(=O)c2n1 | 33.1 µM (inactive) | 20.6 µM (inactive) | 22.8 µM (inactive) | 21.7 µM (inactive) | 16.9 µM (inactive) | 7.52 µM (inactive) | 4.89 µM (inactive) | 6.7 µM (inactive) | 5.83 µM (inactive) | 9.84 µM (inactive) |  | 8.49 µM (inactive) | 16 µM (inactive) | 16.9 µM (inactive) | 9.89 µM (inactive) | 23.6 µM (inactive) | 22.9 µM (inactive) | 30.7 µM (inactive) | 4.61 µM (inactive) | 7.53 µM (inactive)
9 | COc1ccc(/C=N/c2ccc(-c3nc4ccccc4[nH]3)cc2)cc1OC | > 100 µM (inactive) | 89.1 µM (inactive) | > 100 µM (inactive) | > 100 µM (inactive) | > 100 µM (inactive) | > 100 µM (inactive) | > 100 µM (inactive) | > 100 µM (inactive) | > 100 µM (inactive) | > 100 µM (inactive) | > 100 µM (inactive) | > 100 µM (inactive) | > 100 µM (inactive) | > 100 µM (inactive) | 81.7 µM (inactive) | > 100 µM (inactive) | > 100 µM (inactive) | > 100 µM (inactive) |  | 97.9 µM (inactive)
10 | C1=C(c2ccccc2)C(N2CCOCC2)Oc2ccccc21 (centres undefined) | > 100 µM (inactive) | 45.3 µM (inactive) | > 100 µM (inactive) | > 100 µM (inactive) | > 100 µM (inactive) | > 100 µM (inactive) | 79.8 µM (inactive) | > 100 µM (inactive) | 77.4 µM (inactive) | > 100 µM (inactive) | > 100 µM (inactive) |  | > 100 µM (inactive) | > 100 µM (inactive) | > 100 µM (inactive) | > 100 µM (inactive) | > 100 µM (inactive) | > 100 µM (inactive) | 95.3 µM (inactive) | > 100 µM (inactive)
11 | CC(=O)O[C@H]1C(=O)[C@@]2(C)[C@H]([C@H](OC(=O)C3CCCCC3)[C@]3(O)C[C@H](OC(=O)[C@H](O)[C@@H](NC(=O)OC(C)(C)C)c4ccccc4)C(C)=C1C3(C)C)[C@]1(OC(C)=O)CO[C@@H]1C[C@@H]2O | 0.413 µM (active) | 0.0134 µM (active) |  | 0.00817 µM (active) | 0.00226 µM (active) | 0.00918 µM (active) | > 3.03 µM (inactive) | 0.00125 µM (active) | 0.0168 µM (active) | 0.027 µM (active) |  | 0.0803 µM (active) | 0.0385 µM (active) | 0.0326 µM (active) | 0.00542 µM (active) | 0.00634 µM (active) | 0.0678 µM (active) | 0.0252 µM (active) | 0.0129 µM (active) | 0.0331 µM (active)
12 | C[C@H](CCC(=O)O)[C@H]1CC[C@H]2[C@@H]3C(=O)C[C@@H]4C[C@H](O)CC[C@]4(C)[C@H]3C[C@H](O)[C@]12C | > 100 µM (inactive) | > 100 µM (inactive) | > 100 µM (inactive) | > 100 µM (inactive) | > 100 µM (inactive) | > 100 µM (inactive) | > 100 µM (inactive) |  | > 100 µM (inactive) |  | > 100 µM (inactive) | > 100 µM (inactive) | > 100 µM (inactive) | > 100 µM (inactive) | > 100 µM (inactive) | > 100 µM (inactive) | > 100 µM (inactive) | > 100 µM (inactive) | > 100 µM (inactive) | > 100 µM (inactive)
13 | Cc1cccc(-c2cc(O)c3ccc(C)nc3n2)c1 | 0.711 µM (active) | 0.435 µM (active) | 0.256 µM (active) | 0.556 µM (active) | 0.0294 µM (active) | 0.194 µM (active) | 0.141 µM (active) | 0.188 µM (active) | 0.261 µM (active) | 0.278 µM (active) | 2.75 µM (inactive) | 0.421 µM (active) | 0.668 µM (active) | 0.506 µM (active) | 0.0491 µM (active) | 0.101 µM (active) | 0.249 µM (active) |  | 0.41 µM (active) | 0.456 µM (active)
14 | CC(NC(=O)C(Cc1ccc([N+](=O)[O-])cc1)NC(=O)C(N)CCCCN)C(=O)NC(Cc1ccc([N+](=O)[O-])cc1)C(N)=O (centres undefined) (H-K[Phe(4-NO2)]A[Phe(4-NO2)]-NH2; configuration not given here) | 32.8 µM (inactive) | 27.6 µM (inactive) | 47 µM (inactive) | > 100 µM (inactive) | > 52.6 µM (inactive) | > 30.5 µM (inactive) | 69 µM (inactive) | 17.4 µM (inactive) | 32.5 µM (inactive) | 32.7 µM (inactive) | 75.7 µM (inactive) | 51.5 µM (inactive) | 24.9 µM (inactive) | > 85.3 µM (inactive) |  | 27.2 µM (inactive) | > 49.1 µM (inactive) | > 68.2 µM (inactive) | > 100 µM (inactive) | 39.2 µM (inactive)
